Values after ≈ are worked out from the molar mass of the structure shown.
Assays:
[1] = system: Helicobacter pylori; assay: Inhibition of Helicobacter pyroli PFOR expressed in Escherichia coli at 40 uM
[2] = system: Helicobacter pylori; assay: Antimicrobial activity against Helicobacter pylori; assay type: functional
[3] = system: Campylobacter jejuni; assay: Antimicrobial activity against Campylobacter jejuni; assay type: functional
[4] = system: Clostridioides difficile; assay: Antimicrobial activity against Clostridium difficile; assay type: functional

Compound | inhibition [1] [%] | MIC [2] [µM] | MIC [3] [µM] | MIC [4] [µM]
CCCCCC(=O)Nc1ncc([N+](=O)[O-])s1 | 70 | 0.5 (≈ 0.122 µg/mL) | 8.2 (≈ 1.99 µg/mL) | 2.1 (≈ 0.511 µg/mL)
O=C(Nc1nc(Cl)c([N+](=O)[O-])s1)c1ccccc1 | 59 | 8.8 (≈ 2.5 µg/mL) | > 28.2 | 7 (≈ 1.99 µg/mL)
O=C(Nc1nc(Cl)c([N+](=O)[O-])s1)c1cccc(C(F)(F)F)c1 | 27 | 5.7 (≈ 2 µg/mL) | > 22.7 | 34.1 (≈ 12 µg/mL)
CC(=O)Oc1ccccc1C(=O)Nc1ncc([N+](=O)[O-])s1 [NITAZOXANIDE] | 54 | 13 (≈ 3.99 µg/mL) | 0.8 (≈ 0.246 µg/mL) | 39.1 (≈ 12 µg/mL)
O=C(Nc1ncc([N+](=O)[O-])s1)c1cccc(C(F)(F)F)c1 | 47 | 3.5 (≈ 1.11 µg/mL) | 0.4 (≈ 0.127 µg/mL) | 4.7 (≈ 1.49 µg/mL)
O=C(Nc1sc([N+](=O)[O-])cc1[N+](=O)[O-])c1cccs1 | 77 | 2.5 (≈ 0.748 µg/mL) | 20 (≈ 5.99 µg/mL) | 1 (≈ 0.299 µg/mL)
O=C(Nc1ncc([N+](=O)[O-])s1)c1cccs1 [TENONITROZOLE] | 50 | 2.9 (≈ 0.74 µg/mL) | 1 (≈ 0.255 µg/mL) | 2.9 (≈ 0.74 µg/mL)
O=C(Nc1sc([N+](=O)[O-])cc1[N+](=O)[O-])c1ccccc1 | 55 | 1.3 (≈ 0.381 µg/mL) | 27.3 (≈ 8.01 µg/mL) | 0.9 (≈ 0.264 µg/mL)
O=C(Nc1nc(Cl)c([N+](=O)[O-])s1)c1cccs1 | 51 | 6.9 (≈ 2 µg/mL) | > 13.8 | 13.8 (≈ 4 µg/mL)
O=C(Nc1sc([N+](=O)[O-])cc1[N+](=O)[O-])c1ccoc1 | 66 | 2.6 (≈ 0.736 µg/mL) | 3.5 (≈ 0.991 µg/mL) | 0.4 (≈ 0.113 µg/mL)
CCCCCC(=O)Nc1sc([N+](=O)[O-])cc1[N+](=O)[O-] | 80 | 2.6 (≈ 0.747 µg/mL) | 27.8 (≈ 7.99 µg/mL) | 0.9 (≈ 0.259 µg/mL)
O=C(Nc1ncc([N+](=O)[O-])s1)c1ccoc1 | 56 | 0.8 (≈ 0.191 µg/mL) | 2.1 (≈ 0.502 µg/mL) | 12.5 (≈ 2.99 µg/mL)
CCCCCC(=O)Nc1nc(Cl)c([N+](=O)[O-])s1 | 63 | 0.9 (≈ 0.25 µg/mL) | 28.8 (≈ 8 µg/mL) | 36 (≈ 10 µg/mL)
O=C(Nc1sc([N+](=O)[O-])cc1[N+](=O)[O-])c1cccc(C(F)(F)F)c1 | 47 | 0.5 (≈ 0.181 µg/mL) | 4.2 (≈ 1.52 µg/mL) | 2.1 (≈ 0.759 µg/mL)
